How the values were obtained:
[1] = Solution phase ethylene polymerization, semi-batch reactor (SBR)
Description: (§1) All the solution polymerization experiments described below were conducted using an Autoclave Engineers Zipperclave reactor (500 mL). All the chemicals (solvent, catalyst and cocatalyst) were fed into the reactor batchwise except ethylene which was fed on demand. No product was removed during the polymerization reaction. As are known to those skilled in the art, all the feed streams were purified prior to feeding into the reactor by contact with various absorption media to remove catalysts killing impurities such as water, oxygen, sulfur and polar materials. All components were stored and manipulated under an atmosphere of purified argon or nitrogen. The reactor uses a programmable logical control (PLC) system with Wonderware 5.1 s, oftware for the process control. Ethylene polymerizations were performed in the reactor equipped with an air driven stirrer and an automatic temperature control system.
The catalyst was dissolved in toluene. The polymerization reaction time is typically 10 minutes. The reaction was terminated by adding 5 mL of methanol to the reactor and the polymer was recovered by evaporation of the solvent. The polymerization activities were calculated based on the ethylene consumption.
Examples 1-18 were conducted on a solution semi-batch reactor (SBR).
SBR Experimental Conditions with MAO Activation
Catalyst Concentration 200 μmol/L
PMAO-IP Al/Zr = 300 (mol/mol)
Reaction Temperature 160° C.
Reactor Pressure 140 psig total
Stirring Speed 2000 rpm
SBR Experirimental Conditions with Trinitylborate Activation
PMAO-IP 1 mmol/L as impurity scavenger
^a SBR standard MAO screening conditions.
^b Insitu alkylation: PMAOIP (Al/M = 20) premixed with catalyst, the
mixture and tritylborate solution were injected into the reactor
^c SBR standard trityl borate screening conditions.
^d Premix catalyst and cocatalyst.
^e Zr(Bz)4 as scavenger at 1.2 mmol/L. […]

[2] = Gas phase polymerization, supported catalyst, semi-batch gas phase reactor; conditions: 200 psig, 90° C., 60 minutes; for Yield PE: 50-54 mg supported catalyst
Text: The catalyst preparation methods described below employ typical techniques for the syntheses and handling of air-sensitive materials. Standard Schlenk and drybox techniques were used in the preparation of ligands, metal complexes, support substrates and supported catalyst systems. Solvents were purchased as anhydrous materials and further treated to remove oxygen and polar impurities by contact with a combination of activated alumina, molecular sieves and copper oxide on silica/alumina. Where appropriate, elemental compositions of the supported catalysts were measured by Neutron Activation analysis and a reported accuracy of ±1% (weight basis).
The supported catalysts were prepared by initially supporting MAO on a silica support, followed by deposition of the catalyst component.
(§2) All the polymerization experiments described below were conducted using a semi-batch, gas phase polymerization reactor of total internal volume of 2.2 L. Reaction gas mixtures, including ethylene were measured to the reactor on a continuous basis using a calibrated thermal mass flow meter, following passage through purification media as described above. A pre-determined mass of the catalyst sample was added to the reactor under the flow of the inlet gas with no pre-contact of the catalyst with any reagent, such as a catalyst activator. The catalyst was activated in situ (in the polymerization reactor) at the reaction temperature in the presence of the monomer, using a metal alkyl complex which has been previously added to the reactor to remove adventitious impurities. Purified and rigorously anhydrous sodium chloride was used as a catalyst dispersing agent.
The internal reactor temperature is monitored by a thermocouple in the polymerization medium and can be controlled at the required set point to +/-1.0° C. The duration of the polymerization experiment was one hour. Following the completion of the polymerization experiment, the polymer was separated from the sodium chloride and the yield determined. The following table illustrates bench scale gas phase reaction conditions.
Solvent 5-10 mL hexane added with catalyst
Operating Mode Gas Phase
(§3) Aluminum alkyl 25-30 wt. % triisobutyl aluminum
(§4) Reaction Pressure 200 psig
(§5) Reaction Temperature 90° C.
(§6) Reaction Time 60 minutes
Examples 19-22 are examples of the gas phase polymerization. The next table illustrates data concerning the Al/transition metal ratios of the supported catalyst, polymer yield and polymer properties.

[3] = High temperature and pressure slurry polymerization, supported catalyst; conditions: slurry in hexane, 200 psig, 90° C., 60 minutes
Description: The supported catalyst described in Part B was also used for the slurry polymerization tests.
as §2, with “a semi-batch” for “a semi-batch, gas phase polymerization”, “sample as” for “sample was”, “complex and solvent” for “complex”, “which have” for “which has”, “impurities.” for “impurities. Purified and rigorously anhydrous sodium chloride was used as a catalyst dispersing agent.”
The internal reactor temperature is monitored by a thermocouple in the polymerization medium and can be controlled at the required set point to +/-1.0° C. The duration of the polymerization experiment was one hour. Following the completion of the polymerization experiment, the slurry was transferred from the reactor to a bowl, and the solvent was left to evaporate. The following table illustrates bench scale slurry phase reaction conditions.
Operating Mode Slurry Phase
as §3, §4, §5, §6
Examples 23-24 are high pressure and temperature slurry polymerization examples. The next table illustrates data concerning the Al/transition metal ratios of the supported catalyst; polymer yield and polymer properties.

[4] = Low temperature and pressure slurry polymerization on catalyst screening unit (CSU); conditions: 10 psig
Description: Low pressure and temperature slurry polymerization experiments were conducted on a catalyst screening unit (CSU) where polymerization occurs in a cyclohexane reaction media, ethylene is fed to the reactor on demand and is monitored by a mass flow meter. On the CSU, reaction temperatures are monitored and controlled by thermocouples and one RTD. Reactor temperature control is maintained by a HAAKE circulating water bath which has external thermostatic control via the thermocouple at the reactor core. Reactor temperature is maintained by the water from the bath entering the jacket-like coolant chamber surrounding the reactor. Reaction pressures are indicated by mechanical pressure gauges and monitored manually.
The CSU shares the purified ethylene and cyclohexane feeds with the solution semi-batch reactor (SBR). Ultra-High-Purity argon from PRAXAIR which is purified further by 13× and OXICLEAR on a separate gas purification unit is used for reactor system purging and solvent sparging. The polymerization products are quantitatively recovered for mass determination, and polymerization activities are then calculated based upon mass of product, millimoles of catalyst injected and reaction time.
Examples 25-32 were conducted on a catalyst screening unit (CSU).
Catalyst Concentration 50 μmol/L (Zr)
Catalyst Mole Ratio Al/Zr = 500/1
Polymethylaluminoxane (PMAO-IP)
Reaction Temperature Setpoint 35° C.
Reactor Pressure Setpoint 10 psig total
Stirring Speed ~2250 +/- 300 rpm Initially
Catalyst Concentration 50 μmol/L (M)
Catalyst Mole Ratio Al/B/M = 20/1.05/1
Modified Methylaluminoxane (MMAO-

[5] = Solution phase copolymerization of ethylene with 1-octene, semi-batch reactor (SBR); conditions: [CPh3 ][B(C6 F5)4 ]; copolymerization with 20 mL of 1-octene; based on polymer weight
Description: Polymer molecular weights and molecular weight distributions were measured by GPC (Waters 150-C) at 140° C. in 1,2,4-trichlorobenzene calibrated using polyethylene standards.
as §1
The catalyst was dissolved in toluene. The polymerization reaction time is typically 10 minutes. […] The polymerization activities were calculated based on the ethylene consumption. […]
were calculated based on polymer weight. 20.7 Br/1000 C detected by NMR […]

[6] = SBR standard MAO screening: PMAO-IP, Al/Zr = 300, 160° C., 140 psig
[7] = [CPh3 ][B(C6 F5)4 ], in situ alkylation, PMAO-IP (Al/M = 20) premixed with catalyst, 160° C.
[8] = SBR standard trityl borate screening: [CPh3 ][B(C6 F5)4 ], 160° C., 140 psig
[9] = MMAO-7/[CPh3 ][B(C6 F5)4 ], Al/B/M = 20/1.05/1, 35° C.

| Compound | Activity [1, 6] [gPE/mmol cat*hr] | Yield per catalyst [2] [gPE/g Catalyst] | Yield per metal [2] [gPE/g Metal] | Yield PE [2] [g] | Activity ([4]; PMAO-IP, Al/Zr = 500/1, 35° C.) [gPE/mmol cat*hr] | Activity [1, 8] [gPE/mmol cat*hr] | also measured |
| --- | --- | --- | --- | --- | --- | --- | --- |
| [ZrCl2 {C(Ph2 P=NSiMe3)2 }] [Zr-3D] | 14.2 | 0 | 0 | 0 | 1 |  | Yield per catalyst [3]: 4 gPE/g Catalyst; Yield per metal [3]: 915 gPE/g Metal; Yield PE ([3]; 122-137 mg supported catalyst): 0.6 g |
| [Cl][Zr+2][Cl].c1cc[cH-]c1.c1cc[cH-]c1 [Cp2 ZrCl2, reference compound] | 1339.9 |  |  |  | 2692 |  |  |
| [ZrCl2 {(C(O)(NAd))C(Ph2 P=NSiMe3)2 }] [KB-103] | 129.0 | 8 | 1607 | 0.4 | 0 |  | Activity [1, 7]: 498.7 gPE/mmol cat*hr |
| [ZnMe{HC(Ph2 P=NSiMe3)2 }] [AK-17] |  | 0 | 0 | 0 |  | 89.78 | Activity [4, 9]: 4 gPE/mmol cat*hr |
| [Zr{C(Ph2 P=NSimMe3)2 }(CH2 C6 H5)2 ] [Zr-6D] |  |  |  |  | 13 | 11.6 | Activity ([1]; [CPh3 ][B(C6 F5)4 ], Zr(Bz)4 as scavenger at 1.2 mmol/L, 160° C.): 14.4 gPE/mmol cat*hr; Activity ([1]; [CPh3 ][B(C6 F5)4 ], premix catalyst and cocatalyst, 160° C.): 42.7 gPE/mmol cat*hr; Activity ([1]; cocatalyst B(C6 F5)3, footnote c standard trityl borate screening conditions, 160° C.): 9.12 gPE/mmol cat*hr; Activity [5]: 10.5 gPE/mmol cat*hr |
| [ZrMe2 {C(Cy2 =NSiMe3)2 }] [Zr-3C-Me2] |  |  |  |  |  | 56.8 | Activity [5]: 8.22 gPE/mmol cat*hr; Activity [4, 9]: 29 gPE/mmol cat*hr |
| [ZrCl2 {C(Cy2 =NSiMe3)2 }] [Zr-3C] | 22.7 |  |  |  | 0 |  | Activity [1, 7]: 70.6 gPE/mmol cat*hr |

Reference: patent publication US6060568A, “Carbene transition metal catalysts” (The Governors of the University of Alberta, priority 1999, dated 2000)
